Where a name gives a salt, the structure may show the parent alone.
Tested on: dentin postoperative hypersensitivity of human teeth
Experiment: Clinical evaluation of post-operative dentin hypersensitivity in amalgam restoration patients
Type: in vivo
Protocol: Prior to anesthesia for pre-treatment evaluation and during the first week of treatment, the patients completed a questionnaire on pain. The patients were also evaluated post-operatively at one, three and six weeks. […] Only patients who had elected amalgam restoration procedures at UAB were employed for this study. Each tooth received a pre anesthesia evaluation for dentin postoperative hypersensitive with a cold stimulus and air jet for thermal testing. For cold-ice testing, plastic needle covers were filled with water and frozen in a refrigerator freezer for uses as the standardized cold stimulus. For air stimulation, the standardized baseline air jet from a syringe was used to direct a blast of air at the offending tooth and defective restoration. A randomized number chart was employed to select teeth for either the Copalite® varnish controls or teeth to be treated with the product of the present invention, potassium oxalate dihydrate. Following pre operative data collection and anesthesia, each tooth then received a routine intracoronal Class-I or Class-II cavity preparations. […] Following cavity preparation, rinsing and gentle air drying, the entire preparation surface was treated with the Copalite® varnish without modification or removal of the smear layer. Each control cavity was treated with three layers of copal varnish and each layer gently air dispersed with a chip syringe before the following Copalite® coat was applied. […] The patient was also evaluated for postoperative hypersensitivity at one, three and six weeks post-operatively. […] Thermal tests for ice and an air jet were administered and data recorded as for all of the previous tests. For base line data, each patient was evaluated for pain or sensitivity to cold and air prior to their treatment in this study. […] All data was analyzed by one-way Analysis of Variance (ANOVA) at the 0.05 level depending on the cell sizes in our contingency table of treatments versus responses. […] Responses from each of the patients were recorded on separate sheets and then tabulated onto the master sheet according to the identified criteria. The raw data were recorded from the McGill Visual Analog Scale (MVAS) evaluation sheets. Data were recorded from all patients experiencing none, some or severe post-operative hypersensitivity based on the patient responses at the various intervals, preoperative at 0 days, and post treatment […]. […] The date for each of the McGill VA scales were tabulated and recorded on a separate sheet with the patient's name and clinical record number-as a 10 centimeter straight line with no identifying marks along its axis.

SMILES: O=C(O)C(=O)O [potassium oxalate dihydrate, oxalate acid potassium salt, dihydrate 99%]
- patients pain free following the first procedure (MVA survey, post-operative): 88.5%
- reduction in post-operative pain (collective MVA scale data) (McGill Visual Analog Scale, treated teeth): dramatic reduction
- overall pain reduction for the cold discriminator measurement (cold stimulus, compared with Copalite): greater reduction
- reduction in sensitivity / reported pain to the various stimuli (especially cold), in response to direct questioning (patients, post-operatively after amalgam restoration): 80.3%
